Results: patent publication US12606520B2, “Calpain-2 inhibitor compounds and methods of treatment” (WESTERN UNIVERSITY OF HEALTH SCIENCES, priority 2020, dated 2026)

Columns and labels:
[1] = target: T1, calpain-2 (Mus musculus, UniProt O08529); test: Calpain-2 activity after TBI in mice (i.p. dosing); assay type: in vivo; parameters: from tissue; host or cells: cerebellar P2 fractions / brain of wild-type mice after TBI
T1 sequence (O08529 1-700): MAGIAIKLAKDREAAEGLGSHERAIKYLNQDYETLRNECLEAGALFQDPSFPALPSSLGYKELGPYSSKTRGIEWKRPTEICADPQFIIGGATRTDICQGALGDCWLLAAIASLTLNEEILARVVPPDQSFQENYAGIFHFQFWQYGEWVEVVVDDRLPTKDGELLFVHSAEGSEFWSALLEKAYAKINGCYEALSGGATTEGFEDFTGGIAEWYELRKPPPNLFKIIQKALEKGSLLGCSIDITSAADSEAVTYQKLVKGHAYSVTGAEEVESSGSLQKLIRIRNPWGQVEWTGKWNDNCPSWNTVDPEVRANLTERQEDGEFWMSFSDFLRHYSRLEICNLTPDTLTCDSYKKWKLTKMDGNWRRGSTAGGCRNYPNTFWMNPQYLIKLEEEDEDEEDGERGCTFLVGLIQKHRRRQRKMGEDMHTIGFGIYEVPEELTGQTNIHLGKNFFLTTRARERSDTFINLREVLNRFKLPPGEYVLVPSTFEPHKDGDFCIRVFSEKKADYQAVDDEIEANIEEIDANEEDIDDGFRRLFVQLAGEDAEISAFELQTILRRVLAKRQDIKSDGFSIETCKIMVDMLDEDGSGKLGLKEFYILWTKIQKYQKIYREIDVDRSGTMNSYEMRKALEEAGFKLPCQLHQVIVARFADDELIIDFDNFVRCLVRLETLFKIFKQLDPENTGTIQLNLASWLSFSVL
T1 sequence (O88456 1-268 partner): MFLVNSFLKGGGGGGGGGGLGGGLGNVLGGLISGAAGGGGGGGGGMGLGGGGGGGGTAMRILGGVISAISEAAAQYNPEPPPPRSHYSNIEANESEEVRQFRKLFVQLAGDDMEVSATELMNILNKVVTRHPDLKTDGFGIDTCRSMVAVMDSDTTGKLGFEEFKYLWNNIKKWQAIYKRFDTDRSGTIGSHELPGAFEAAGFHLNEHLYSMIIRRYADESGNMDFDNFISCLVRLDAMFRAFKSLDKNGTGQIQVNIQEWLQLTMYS
Method: Calpain activity in cerebellar P2 fractions was measured 24 h after traumatic brain injury (TBI) in adult wild-type mice and the assay results for calpain-1 and calpain-2 are shown in FIG. 2. 0.1 or 1 mg/kg of NA112 was injected intraperitoneally 1 h after TBI. Each measurement of in vivo selectivity was obtained as follows: • Calpain-1 activity: Calpain activity with 20 μM Ca^2+. Normalized to Vehicle. • Calpain-2 activity: Calpain activity with 5 mM Ca^2+ minus Calpain activity with 20 μM Ca^2+. Results are means S.E.M. of 3 experiments.
Calpain activity in cerebellar P2 fractions was measured 24 h after TBI in adult WT mice, and vehicle or 0.1 or 1 mg/kg of NA112 (12) dissolved in DMSO or liposomal formulation (lipo) was injected intraperitoneally 1 h after TBI. […]
Vehicle (DMSO or liposomes) or 0.1 or 1 mg/kg of NA112 (12) dissolved in DMSO or liposomal formulation (lipo) was injected intraperitoneally 1 h after TBI in WT mice. Calpain activity was measured 24 h later in cerebellar P2 fractions. Calpain-1 activity was measured in the presence of 20 μM calcium and calpain-2 activity was measured as the difference between calpain activity measured in the presence of 5 mM calcium and that measured in the presence of 20 μM calcium (FIG. 11). In both cases, calpain activity was normalized to the values measured in vehicle-treated mice. […]

[2] = test system: TUNEL-positive cells; test: TUNEL staining of brain 24 h after TBI in WT mice; assay type: in vivo
Method: Quantification of TUNEL staining 24 h after TBI plus i.p. injection of NA112 at 0.1 or 1.0 mg/kg. Total numbers of TUNEL-positive cells in 3 coronal sections (Bregma 0.50, −0.58, −1.58 mm) of each brain were counted and averaged. Results are means S.E.M. of 3 animals. * p<0.05 vs Vehicle. One-way ANOVA followed by Bonferroni test.
Vehicle (control liposomes) or 0.1 or 1 mg/kg of NA112 dissolved in liposomal formulation was injected 1 h after TBI in WT mice. Animals were sacrificed 24 h later and brains were stained with TUNEL staining to analyze the extent of cell death.
The number of TUNEL-positive cells in images similar to those shown in FIG. 12 was quantified (FIG. 13). Results in FIG. 13 are Means±S.E.M. of 3 different animals.
Quantification of TUNEL staining 24 h after TBI plus i.p. injection of WT mice with NA184 at indicated doses 1 h after TBI. Total numbers of TUNEL-positive cells in 3 coronal sections (Bregma 0.50, −0.58, −1.58 mm) of each brain were counted and averaged. Results are means±S.E.M. of 3-6 animals. * p<0.05, ** p<0.01, vs Vehicle. One-way ANOVA followed by Bonferroni test (FIG. 20).

Row | SMILES | Calpain-2 inhibition, DMSO vs liposomes ([1]; 0.1 or 1 mg/kg i.p. 1 h after TBI, cerebellar P2 fractions 24 h after TBI) | TUNEL staining ([2]; liposomal formulation, 0.1 or 1 mg/kg 1 h after TBI, 24 h later) | Calpain-2 inhibition in brain, male and female mice ([1]; 1 mg/kg i.p., 24 h after TBI) | ED50 ([2]; Mus musculus, ip, i.p. 1 h after TBI, DMSO solution, TUNEL 24 h after TBI)
1 | CCC(NC(=O)[C@H](CC(C)C)NC(=O)NCc1ccccc1)C(=O)C(=O)NCc1cc(OC)cc(OC)c1 (mixture of isomers) [NA112, (2S)-2-(3-benzylureido)-N-(1-((3,5-dimethoxybenzyl)amino)-1,2-dioxopentan-3-yl)-4-methylpentanamide] | same degree of calpain-2 inhibition | decrease in TUNEL staining | – | –
2 | CCC(NC(=O)[C@H](CC(C)C)NC(=O)NCc1ccccc1)C(=O)C(=O)NCc1cccc(Cl)c1OC (stereo partly drawn) [NA184, (2S)-2-(3-benzylureido)-N-(1-((3-chloro-2-methoxybenzyl)amino)-1,2-dioxopentan-3-yl)-4-methylpentanamide] | – | – | significantly inhibited calpain-2 | ~0.13 mg/kg
